Test results from BindingDB's records for doi:10.1021/cb300623a (University of Washington, 2013).

Experiments:
Assay in all cases: Fluorescence Assay
Details in all cases: pH 7.5; 25 °C
Ephrin type-A receptor 3 = target: T1, Ephrin type-A receptor 3 (Homo sapiens, UniProt P29320)
T1 sequence (P29320 whole entry): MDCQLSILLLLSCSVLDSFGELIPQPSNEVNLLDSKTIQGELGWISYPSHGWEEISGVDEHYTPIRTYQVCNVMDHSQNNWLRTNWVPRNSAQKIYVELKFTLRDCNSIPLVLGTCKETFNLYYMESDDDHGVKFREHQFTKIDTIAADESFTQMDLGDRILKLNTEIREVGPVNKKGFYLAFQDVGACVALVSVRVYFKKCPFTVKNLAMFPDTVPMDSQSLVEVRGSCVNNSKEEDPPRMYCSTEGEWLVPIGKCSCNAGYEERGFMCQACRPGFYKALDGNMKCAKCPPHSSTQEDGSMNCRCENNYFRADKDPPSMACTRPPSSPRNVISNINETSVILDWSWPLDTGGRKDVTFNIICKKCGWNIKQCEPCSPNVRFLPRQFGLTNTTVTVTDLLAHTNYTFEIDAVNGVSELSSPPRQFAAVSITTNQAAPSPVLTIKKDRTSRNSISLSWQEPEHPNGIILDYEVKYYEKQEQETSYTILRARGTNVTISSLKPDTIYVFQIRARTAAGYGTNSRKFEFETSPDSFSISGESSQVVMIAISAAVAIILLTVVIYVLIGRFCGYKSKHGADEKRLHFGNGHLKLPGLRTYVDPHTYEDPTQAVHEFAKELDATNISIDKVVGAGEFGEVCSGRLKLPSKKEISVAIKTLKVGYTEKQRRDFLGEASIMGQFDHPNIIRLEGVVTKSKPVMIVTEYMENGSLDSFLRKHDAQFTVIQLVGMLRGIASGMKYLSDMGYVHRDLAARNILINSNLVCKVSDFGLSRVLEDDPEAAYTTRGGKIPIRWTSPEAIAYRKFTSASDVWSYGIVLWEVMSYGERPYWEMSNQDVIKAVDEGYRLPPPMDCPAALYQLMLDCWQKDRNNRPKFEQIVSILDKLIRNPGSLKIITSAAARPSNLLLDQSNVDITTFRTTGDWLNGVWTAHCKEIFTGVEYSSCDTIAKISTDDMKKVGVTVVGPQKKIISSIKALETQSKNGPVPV
Text: (§1) Fluorescence assay used for determination of catch and release efficiency.

[1] = target: T2, Interleukin-1 receptor-associated kinase 4 (Homo sapiens, UniProt Q9NWZ3)
T2 sequence (Q9NWZ3 whole entry): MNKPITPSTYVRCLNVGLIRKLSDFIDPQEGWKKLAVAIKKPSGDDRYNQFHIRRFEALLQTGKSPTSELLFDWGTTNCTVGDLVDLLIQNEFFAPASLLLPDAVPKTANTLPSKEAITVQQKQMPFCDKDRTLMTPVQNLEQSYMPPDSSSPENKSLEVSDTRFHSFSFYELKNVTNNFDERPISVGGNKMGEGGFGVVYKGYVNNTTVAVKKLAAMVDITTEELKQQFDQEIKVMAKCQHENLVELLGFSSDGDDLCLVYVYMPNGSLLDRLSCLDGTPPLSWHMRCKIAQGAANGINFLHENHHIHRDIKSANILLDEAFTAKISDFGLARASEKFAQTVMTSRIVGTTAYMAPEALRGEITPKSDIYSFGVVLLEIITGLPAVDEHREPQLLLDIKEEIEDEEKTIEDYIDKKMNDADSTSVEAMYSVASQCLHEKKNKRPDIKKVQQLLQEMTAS
Text: as §1

[2] = target: T3, Mitogen-activated protein kinase kinase kinase 5 (Homo sapiens, UniProt Q99683)
T3 sequence (Q99683 whole entry): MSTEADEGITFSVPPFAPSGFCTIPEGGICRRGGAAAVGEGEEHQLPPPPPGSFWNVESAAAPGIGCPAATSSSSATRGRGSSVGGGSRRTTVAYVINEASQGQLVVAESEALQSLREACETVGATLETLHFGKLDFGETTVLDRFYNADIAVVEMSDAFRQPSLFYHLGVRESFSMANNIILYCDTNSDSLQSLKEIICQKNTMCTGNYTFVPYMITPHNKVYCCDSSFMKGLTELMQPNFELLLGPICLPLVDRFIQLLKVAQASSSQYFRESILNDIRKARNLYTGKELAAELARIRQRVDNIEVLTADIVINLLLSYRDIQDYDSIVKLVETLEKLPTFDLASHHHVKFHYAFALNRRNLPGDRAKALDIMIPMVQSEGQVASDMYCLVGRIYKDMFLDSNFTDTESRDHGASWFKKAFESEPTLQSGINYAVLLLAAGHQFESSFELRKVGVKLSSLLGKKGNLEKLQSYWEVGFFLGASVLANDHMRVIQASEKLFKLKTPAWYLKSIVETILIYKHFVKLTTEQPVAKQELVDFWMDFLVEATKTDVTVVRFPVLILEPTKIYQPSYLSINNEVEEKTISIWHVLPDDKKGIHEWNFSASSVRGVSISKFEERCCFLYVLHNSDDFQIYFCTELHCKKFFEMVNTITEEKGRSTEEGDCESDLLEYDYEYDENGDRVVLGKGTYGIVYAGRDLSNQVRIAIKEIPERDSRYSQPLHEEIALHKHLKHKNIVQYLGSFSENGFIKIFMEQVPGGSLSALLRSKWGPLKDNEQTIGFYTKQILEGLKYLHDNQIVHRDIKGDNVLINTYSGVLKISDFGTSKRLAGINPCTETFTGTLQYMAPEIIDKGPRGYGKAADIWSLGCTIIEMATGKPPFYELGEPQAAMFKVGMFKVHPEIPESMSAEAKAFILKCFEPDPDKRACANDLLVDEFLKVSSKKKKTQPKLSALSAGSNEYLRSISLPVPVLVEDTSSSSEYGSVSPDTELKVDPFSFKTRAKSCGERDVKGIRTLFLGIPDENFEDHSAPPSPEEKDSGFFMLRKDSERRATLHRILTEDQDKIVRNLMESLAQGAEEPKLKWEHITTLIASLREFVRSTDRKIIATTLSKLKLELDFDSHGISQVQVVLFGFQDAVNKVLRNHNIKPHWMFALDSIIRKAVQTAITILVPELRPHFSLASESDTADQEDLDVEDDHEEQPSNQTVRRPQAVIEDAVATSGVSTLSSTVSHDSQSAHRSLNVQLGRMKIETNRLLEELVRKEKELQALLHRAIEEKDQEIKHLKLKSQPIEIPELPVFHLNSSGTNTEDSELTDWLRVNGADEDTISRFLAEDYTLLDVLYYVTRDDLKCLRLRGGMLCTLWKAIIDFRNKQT
Text: as §1

[3] = target: Proto-oncogene tyrosine-protein kinase Src (Homo sapiens, UniProt P12931)
Text: as §1

[4] = target: Serine/threonine-protein kinase 10 (Homo sapiens, UniProt O94804)
Text: as §1

[5] = target: Serine/threonine-protein kinase PAK 4 (Homo sapiens, UniProt O96013)
Text: as §1

[6] = target: Serine/threonine-protein kinase PAK 5 (Homo sapiens, UniProt Q9P286)
Text: as §1

[7] = target: Tyrosine-protein kinase ABL1 (Homo sapiens, UniProt P00519)
Text: as §1

[8] = target: Tyrosine-protein kinase CSK (Homo sapiens, UniProt P41240)
Text: as §1

[9] = target: Tyrosine-protein kinase HCK (Homo sapiens, UniProt P08631)
Text: as §1

[10] = target: Tyrosine-protein kinase Lck (Homo sapiens, UniProt P06239)
Text: as §1

Sequence of Serine/threonine-protein kinase 10 (O94804 whole entry): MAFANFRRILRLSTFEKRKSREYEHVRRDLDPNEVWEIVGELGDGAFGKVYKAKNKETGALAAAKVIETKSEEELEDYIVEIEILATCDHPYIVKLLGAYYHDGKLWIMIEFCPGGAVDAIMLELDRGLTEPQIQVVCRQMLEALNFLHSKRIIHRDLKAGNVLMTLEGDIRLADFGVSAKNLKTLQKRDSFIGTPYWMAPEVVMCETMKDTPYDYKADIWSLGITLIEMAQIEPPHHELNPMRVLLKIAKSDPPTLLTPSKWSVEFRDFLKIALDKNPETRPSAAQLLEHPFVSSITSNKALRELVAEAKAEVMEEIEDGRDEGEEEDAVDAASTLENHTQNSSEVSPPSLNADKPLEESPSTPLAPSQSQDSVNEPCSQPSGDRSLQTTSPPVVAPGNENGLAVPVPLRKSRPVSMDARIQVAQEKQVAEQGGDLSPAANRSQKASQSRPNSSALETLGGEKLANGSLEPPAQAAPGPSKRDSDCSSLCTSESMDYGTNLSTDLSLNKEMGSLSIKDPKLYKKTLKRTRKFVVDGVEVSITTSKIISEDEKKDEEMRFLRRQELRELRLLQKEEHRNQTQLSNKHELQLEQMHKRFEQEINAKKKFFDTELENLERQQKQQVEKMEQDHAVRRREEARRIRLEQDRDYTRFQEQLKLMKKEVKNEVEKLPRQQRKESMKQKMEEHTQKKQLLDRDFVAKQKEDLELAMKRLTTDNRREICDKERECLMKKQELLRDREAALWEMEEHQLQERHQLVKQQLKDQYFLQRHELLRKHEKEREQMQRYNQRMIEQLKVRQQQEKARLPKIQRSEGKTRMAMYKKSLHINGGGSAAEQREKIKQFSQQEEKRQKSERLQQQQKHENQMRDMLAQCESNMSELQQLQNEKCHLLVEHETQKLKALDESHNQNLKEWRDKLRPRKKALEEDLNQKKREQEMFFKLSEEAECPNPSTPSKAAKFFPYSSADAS
Sequence of Serine/threonine-protein kinase PAK 4 (O96013 whole entry): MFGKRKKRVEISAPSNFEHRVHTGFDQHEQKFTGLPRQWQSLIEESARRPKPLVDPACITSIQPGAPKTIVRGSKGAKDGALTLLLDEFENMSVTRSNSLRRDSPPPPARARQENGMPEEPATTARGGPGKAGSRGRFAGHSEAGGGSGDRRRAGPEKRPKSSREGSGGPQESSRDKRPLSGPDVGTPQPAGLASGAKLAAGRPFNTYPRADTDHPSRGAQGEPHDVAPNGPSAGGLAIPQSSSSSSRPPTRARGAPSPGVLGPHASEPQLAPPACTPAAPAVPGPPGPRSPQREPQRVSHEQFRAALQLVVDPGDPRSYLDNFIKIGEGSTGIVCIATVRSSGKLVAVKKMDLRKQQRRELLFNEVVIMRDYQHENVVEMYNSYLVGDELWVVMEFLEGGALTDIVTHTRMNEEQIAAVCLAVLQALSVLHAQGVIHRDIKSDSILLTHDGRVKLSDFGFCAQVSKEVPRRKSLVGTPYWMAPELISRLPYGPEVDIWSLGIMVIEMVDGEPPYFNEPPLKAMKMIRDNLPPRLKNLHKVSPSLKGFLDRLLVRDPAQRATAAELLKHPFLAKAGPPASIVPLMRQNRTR
Sequence of Tyrosine-protein kinase HCK (P08631 whole entry): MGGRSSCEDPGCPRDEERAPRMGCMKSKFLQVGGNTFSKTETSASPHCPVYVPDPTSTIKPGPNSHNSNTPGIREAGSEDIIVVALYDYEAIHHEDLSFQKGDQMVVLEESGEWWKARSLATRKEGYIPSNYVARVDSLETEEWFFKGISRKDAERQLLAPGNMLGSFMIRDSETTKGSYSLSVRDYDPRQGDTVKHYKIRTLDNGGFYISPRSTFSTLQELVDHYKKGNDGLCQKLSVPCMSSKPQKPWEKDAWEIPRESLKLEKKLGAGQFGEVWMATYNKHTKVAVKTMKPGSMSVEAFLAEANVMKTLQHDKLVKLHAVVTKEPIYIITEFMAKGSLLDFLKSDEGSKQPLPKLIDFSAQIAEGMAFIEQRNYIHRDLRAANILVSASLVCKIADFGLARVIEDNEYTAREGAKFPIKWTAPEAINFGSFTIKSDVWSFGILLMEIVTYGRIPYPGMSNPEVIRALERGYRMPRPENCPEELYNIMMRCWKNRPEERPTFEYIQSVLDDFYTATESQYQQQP
Sequence of Serine/threonine-protein kinase PAK 5 (Q9P286 whole entry): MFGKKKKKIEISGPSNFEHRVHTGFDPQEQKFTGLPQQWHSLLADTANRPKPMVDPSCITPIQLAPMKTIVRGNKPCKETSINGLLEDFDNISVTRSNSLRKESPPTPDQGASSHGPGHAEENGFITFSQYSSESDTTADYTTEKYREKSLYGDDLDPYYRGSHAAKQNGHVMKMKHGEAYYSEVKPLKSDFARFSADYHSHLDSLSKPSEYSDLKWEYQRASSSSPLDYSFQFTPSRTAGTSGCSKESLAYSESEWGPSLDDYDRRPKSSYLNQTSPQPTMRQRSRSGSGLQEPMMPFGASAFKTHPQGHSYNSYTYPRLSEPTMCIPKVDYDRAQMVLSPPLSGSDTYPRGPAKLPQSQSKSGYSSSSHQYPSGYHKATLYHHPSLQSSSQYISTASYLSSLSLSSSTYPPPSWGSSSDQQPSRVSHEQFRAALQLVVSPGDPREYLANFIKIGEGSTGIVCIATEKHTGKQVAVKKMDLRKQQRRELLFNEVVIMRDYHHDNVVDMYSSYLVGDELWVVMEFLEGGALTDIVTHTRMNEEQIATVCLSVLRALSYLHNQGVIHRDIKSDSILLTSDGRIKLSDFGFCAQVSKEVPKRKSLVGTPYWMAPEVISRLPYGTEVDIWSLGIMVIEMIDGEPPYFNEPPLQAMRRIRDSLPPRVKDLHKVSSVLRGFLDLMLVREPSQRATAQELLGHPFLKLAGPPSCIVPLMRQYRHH
Sequence of Tyrosine-protein kinase CSK (P41240 whole entry): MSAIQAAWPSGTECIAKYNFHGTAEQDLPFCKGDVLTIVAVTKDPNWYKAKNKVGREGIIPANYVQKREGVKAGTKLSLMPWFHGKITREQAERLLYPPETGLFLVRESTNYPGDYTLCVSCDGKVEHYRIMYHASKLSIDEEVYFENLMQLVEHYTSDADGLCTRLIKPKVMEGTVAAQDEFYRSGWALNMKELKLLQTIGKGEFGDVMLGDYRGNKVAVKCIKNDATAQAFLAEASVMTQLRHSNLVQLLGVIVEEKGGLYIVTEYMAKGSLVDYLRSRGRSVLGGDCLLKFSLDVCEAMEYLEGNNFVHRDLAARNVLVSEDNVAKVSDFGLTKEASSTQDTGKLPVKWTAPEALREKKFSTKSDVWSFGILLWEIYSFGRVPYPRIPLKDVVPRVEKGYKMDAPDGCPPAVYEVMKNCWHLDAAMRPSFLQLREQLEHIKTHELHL
Sequence of Tyrosine-protein kinase Lck (P06239 whole entry): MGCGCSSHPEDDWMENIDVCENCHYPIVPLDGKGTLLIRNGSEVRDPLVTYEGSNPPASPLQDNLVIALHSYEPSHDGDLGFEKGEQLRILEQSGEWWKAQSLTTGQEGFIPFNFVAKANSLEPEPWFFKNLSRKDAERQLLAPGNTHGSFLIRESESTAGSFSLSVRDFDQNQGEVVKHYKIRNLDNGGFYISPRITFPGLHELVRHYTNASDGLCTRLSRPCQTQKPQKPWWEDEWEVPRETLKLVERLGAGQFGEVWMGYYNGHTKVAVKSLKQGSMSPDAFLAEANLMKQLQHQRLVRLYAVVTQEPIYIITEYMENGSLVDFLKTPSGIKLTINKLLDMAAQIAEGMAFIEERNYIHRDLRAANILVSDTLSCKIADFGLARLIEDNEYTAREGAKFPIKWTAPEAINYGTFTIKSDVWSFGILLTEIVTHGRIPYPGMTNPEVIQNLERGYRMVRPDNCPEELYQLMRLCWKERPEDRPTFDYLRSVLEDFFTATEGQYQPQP
Sequence of Proto-oncogene tyrosine-protein kinase Src (P12931 2-536 limits assumed): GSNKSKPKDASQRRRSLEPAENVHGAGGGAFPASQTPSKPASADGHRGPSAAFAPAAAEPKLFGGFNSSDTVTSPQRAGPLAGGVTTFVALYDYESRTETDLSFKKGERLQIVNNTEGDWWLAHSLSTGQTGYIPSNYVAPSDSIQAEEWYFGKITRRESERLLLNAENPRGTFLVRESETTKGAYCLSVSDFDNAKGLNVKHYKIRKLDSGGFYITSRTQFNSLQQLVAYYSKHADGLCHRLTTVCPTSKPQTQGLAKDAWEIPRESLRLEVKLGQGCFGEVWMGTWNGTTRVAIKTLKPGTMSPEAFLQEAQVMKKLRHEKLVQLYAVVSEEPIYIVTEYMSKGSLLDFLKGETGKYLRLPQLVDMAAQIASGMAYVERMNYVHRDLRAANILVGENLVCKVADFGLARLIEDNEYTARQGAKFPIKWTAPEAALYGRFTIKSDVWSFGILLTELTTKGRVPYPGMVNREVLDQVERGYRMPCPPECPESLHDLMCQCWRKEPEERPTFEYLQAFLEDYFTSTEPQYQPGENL

`Cc1ccc(NC(=O)c2cccc(C(F)(F)F)c2)cc1-c1ccc2nc(Nc3ccc(OCCN)cc3)ncc2c1` [Kinase inhibitor, 5] showed an IC50 (Ephrin type-A receptor 3) of less than 10 nM, an IC50 [1] greater than 10000 nM and an IC50 [2] greater than 10000 nM. It also gave an IC50 [3] of less than 2 nM, an IC50 [4] of less than 10 nM and an IC50 [5] greater than 10000 nM. It also gave an IC50 [6] greater than 10000 nM, an IC50 [7] of less than 2 nM and an IC50 [8] of 8.4 nM. For the same molecule, the IC50 [9] was less than 0.5 nM and the IC50 [10] was less than 2 nM.
